Among the test systems are UO-31 renal; SR leukemia; SW-620 colon; A498 renal; NCI/ADR-RES ovarian; SF-295 CNS; 786-0 renal; U251 CNS; OVCAR-8 ovarian; RXF 393 renal.
What all share (assay): DTP human tumour cell line panel, 48 h

Where “and” joins values, the source holds several entries; their conditions need not be identical. Equal entries are not always repeated.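 Compound exposure: 48 hours, 5 concentrations, 96-well plates. GI50: concentration for 50% inhibition of growth. TGI: total growth inhibition.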 Some results are limits rather than exact numbers.

For the molecule `Nc1n[nH]c2ccc([C@H]3[C@@H]4C5CCC(C5)[C@@H]4c4c(ccc5[nH]ncc45)N3S(=O)(=O)C3CC3)cc12` (some centres not stated), the GI50 (in general, the concentration at which growth is held to half of that of the control) was 0.298 µM with UO-31 renal; 0.15 µM in the experiment with SR leukemia; 0.203 µM in the experiment with SW-620 colon; 0.108 µM in the experiment on A498 renal; 0.231 µM in the experiment on NCI/ADR-RES ovarian; 0.136 µM with SF-295 CNS. For the same molecule, the GI50 in the experiment with 786-0 renal is 0.366 µM; in the experiment with U251 CNS, 0.208 µM; with OVCAR-8 ovarian, 0.213 µM. Moreover, the TGI (commonly the concentration giving total growth inhibition) with UO-31 renal is 29.2 µM; with SW-620 colon, above 33.7 µM; in the experiment on A498 renal, 0.384 µM; in the experiment on NCI/ADR-RES ovarian it was above 50 µM; in the experiment with SF-295 CNS it was 1.32 µM; in the experiment on 786-0 renal, 22.3 µM. In addition, the TGI in the experiment with U251 CNS was 17.5 µM; in the experiment on OVCAR-8 ovarian, above 41.1 µM.
Regarding `ClCCN(CCCl)c1ccc(OCc2ccccc2)cc1`, the GI50 with UO-31 renal was 3.99 µM; with SR leukemia, 0.395 µM; in the experiment with SW-620 colon it was 6.46 µM; with A498 renal, 3.54 µM; in the experiment on NCI/ADR-RES ovarian it was 5.44 µM; with SF-295 CNS it was 1.79 µM. Moreover, the values for the GI50 in the experiment on 786-0 renal, in the experiment with U251 CNS and in the experiment on OVCAR-8 ovarian were 2.97 µM, 2.1 µM and 3.3 µM, respectively. Besides, the TGI was 41.4 µM in the experiment with UO-31 renal; 15.5 µM with SR leukemia; 65.8 µM with SW-620 colon; 19.5 µM in the experiment with A498 renal; above 100 µM in the experiment with NCI/ADR-RES ovarian; above 100 µM in the experiment with SF-295 CNS. In addition, the TGI in the experiment with 786-0 renal is 22.1 µM; in the experiment on U251 CNS, 18.2 µM; with OVCAR-8 ovarian, 75.7 µM.
As to `Cc1ccc([I+]c2ccc(C)cc2)cc1`, the GI50 in the experiment on UO-31 renal is 21.3 µM; with RXF 393 renal, 36.6 µM; in the experiment with SW-620 colon, 3.94 µM; in the experiment on A498 renal, 2.28 µM; with NCI/ADR-RES ovarian, above 100 µM; in the experiment on SF-295 CNS, 1.86 µM. The GI50 in the experiment on 786-0 renal is 28.8 µM; with U251 CNS it was 4.1 µM; with OVCAR-8 ovarian it was 2.2 µM. The TGI with UO-31 renal was above 100 µM; with RXF 393 renal it was above 100 µM; with SW-620 colon, above 100 µM; in the experiment on A498 renal, above 100 µM; in the experiment with NCI/ADR-RES ovarian, above 100 µM; with SF-295 CNS, 8.74 µM. For the same molecule, the TGI was above 100 µM in the experiment with 786-0 renal, above 100 µM in the experiment with U251 CNS and 46.5 µM in the experiment with OVCAR-8 ovarian.
Consider `COc1cc2c3c(n(CCCNC(C)(C)CO)c(=O)c2cc1OC)-c1cc2c(cc1C3=O)OCO2`, for which the GI50 in the experiment on UO-31 renal was 1.96 µM; in the experiment on RXF 393 renal, 16.2 µM; with SW-620 colon, 0.25 µM; in the experiment on A498 renal, 17.1 µM; with NCI/ADR-RES ovarian, 3.28 µM; in the experiment on SF-295 CNS, 0.214 µM. Also, the GI50 with 786-0 renal is 0.0829 µM; in the experiment on U251 CNS it was 0.233 µM; in the experiment with OVCAR-8 ovarian it was 1.18 µM. Besides, the TGI is above 55.4 µM in the experiment with UO-31 renal; above 68 µM in the experiment with RXF 393 renal; 19 µM with SW-620 colon; 40.1 µM in the experiment on A498 renal; 28.3 µM with NCI/ADR-RES ovarian; 49.1 µM in the experiment with SF-295 CNS. For the same molecule, the TGI in the experiment on 786-0 renal stood at 0.66 µM; with U251 CNS, 28.4 µM; in the experiment with OVCAR-8 ovarian, 22.4 µM.
On to `CCOC(=O)Cc1csc(Nc2nc(O)c(C3=c4ccccc4=NC3=O)s2)n1`, for which the GI50 in the experiment on UO-31 renal is 23 µM; in the experiment on RXF 393 renal, 41.3 µM; in the experiment on SW-620 colon, 68.5 µM; with A498 renal, 31.6 µM; in the experiment with NCI/ADR-RES ovarian it was 55.6 µM; in the experiment on SF-295 CNS, 32.1 µM. Further, the GI50 in the experiment with 786-0 renal is 21.7 µM; with U251 CNS it was 19.2 µM; in the experiment with OVCAR-8 ovarian, 43.7 µM. The TGI with UO-31 renal was 51.6 µM; in the experiment on RXF 393 renal, above 100 µM; in the experiment with SW-620 colon, above 100 µM; in the experiment on A498 renal, 77.7 µM; in the experiment with NCI/ADR-RES ovarian it was above 100 µM; with SF-295 CNS it was 75.3 µM. In addition, the TGI was 43.2 µM in the experiment on 786-0 renal, 39.6 µM in the experiment with U251 CNS and above 100 µM in the experiment with OVCAR-8 ovarian.
On to `Nc1cc2c(c3ccccc13)C(CCl)CN2C(=O)c1cc2cc(NC(=O)c3cc4ccccc4o3)ccc2[nH]1` (configuration not stated), for which the GI50 in the experiment with SR leukemia, in the experiment on NCI/ADR-RES ovarian, in the experiment with 786-0 renal and with OVCAR-8 ovarian was above 0.11 µM each time. Further, the TGI in the experiment on SR leukemia is 200 µM; with NCI/ADR-RES ovarian, 0.0078 µM and < 0.11 µM; in the experiment with 786-0 renal, above 1100 µM; with OVCAR-8 ovarian it was 0.00407 µM and < 0.11 µM.
For the molecule `O=C1/C(=C\c2ccc(Cl)cc2)CN(C(=O)c2ccccc2)C/C1=C\c1ccc(Cl)cc1`, the GI50 in the experiment with UO-31 renal is 1.83 µM; with RXF 393 renal, 1.68 µM; in the experiment with SW-620 colon, 1.75 µM; in the experiment on A498 renal, 23 µM; in the experiment with NCI/ADR-RES ovarian, 3.59 µM; in the experiment with SF-295 CNS it was 3.38 µM. The GI50 with 786-0 renal was 2.19 µM; in the experiment with U251 CNS it was 1.57 µM; in the experiment with OVCAR-8 ovarian, 3.41 µM. Moreover, the TGI in the experiment with UO-31 renal is 5.33 µM; in the experiment with RXF 393 renal, 3.26 µM; in the experiment with SW-620 colon, 5.01 µM; with A498 renal, above 74 µM; with NCI/ADR-RES ovarian, 19.7 µM; in the experiment on SF-295 CNS it was 57.7 µM. Besides, the TGI in the experiment on 786-0 renal is 4.6 µM; in the experiment with U251 CNS, 3.26 µM; with OVCAR-8 ovarian it was above 100 µM.
Take `O=C(O)c1cc(C(=O)C(=O)c2cc(C(=O)O)c(O)c3ccccc23)c2ccccc2c1O`: the TGI in the experiment with UO-31 renal, in the experiment on RXF 393 renal, in the experiment with SW-620 colon, with A498 renal, with NCI/ADR-RES ovarian and with SF-295 CNS was above 100 µM throughout. Besides, the TGI in the experiment on 786-0 renal, in the experiment on U251 CNS and in the experiment with OVCAR-8 ovarian was above 100 µM each time.
For the molecule `CCOC(=O)c1c2c(n(Cc3ccccc3)c1C)-c1nc[nH]c1C(=O)C2=O`, the GI50 in the experiment with UO-31 renal was 14.7 µM; in the experiment on SR leukemia it was 1.29 µM; in the experiment on RXF 393 renal it was 11.2 µM; with SW-620 colon it was 20.5 µM; with A498 renal it was 16.3 µM; with SF-295 CNS, 15.3 µM. In addition, the GI50 is 18.1 µM with 786-0 renal, 14.7 µM in the experiment on U251 CNS and 14.8 µM in the experiment with OVCAR-8 ovarian. For the same molecule, the TGI is 28.4 µM in the experiment with UO-31 renal; 3.6 µM with SR leukemia; 23.2 µM with RXF 393 renal; 41.8 µM with SW-620 colon; 30.1 µM with A498 renal; 30.9 µM in the experiment with SF-295 CNS. The TGI in the experiment on 786-0 renal is 32.1 µM; in the experiment on U251 CNS it was 27.8 µM; in the experiment on OVCAR-8 ovarian, 28 µM.

The values are drawn from PubChem BioAssay (NCI).
